Source: patent US5314999A, “Derivatives of basic polyene macrolides and their preparation” (Laboratoires Mayoly-Spindler, priority 1989, dated 1994)

Key:
Candida albicans B 2630 = assay: Growth inhibition in liquid medium (Sabouraud broth); format: cell-based; details: B2630, 18 h, read-out: IC 50 (growth-inhibiting concentration of 50%)
Method: (§1) A.1 : Study of the antibiotic efficiency of AmB derivatives in liquid medium against different yeasts
(§2) The antibiotic efficiency was tested by the growth inhibition method in liquid medium (Sabouraud broth) in the presence of different concentrations of the derivatives studied.
(§3) A yeast suspension was cultivated in a broth in such a manner that about 1×10^2 cell/ml were obtained.
(§4) The tubes containing the different concentrations of antifungal substance were inoculated with the same amount of yeast cells, and were then incubated at 28° C. for 18 hours with stirring. For each concentration of antifungal substance, two identical tubes were prepared.
(§5) The inhibition of fungal growth corresponding to the different concentrations was evaluated for each molecule by spectrophotometry at 620 nm and expressed in percent with respect to a reference solution without antifungal substance.

Candida albicans = assay: as above; format: cell-based; details: Candida albicans, 18 h, read-out: IC 50 (growth-inhibiting concentration of 50%)
Method: as §1, §2, §3, §4, §5

Cryptoccocus neoformans = assay: as above; format: cell-based; details: 18 h, read-out: IC 50 (growth-inhibiting concentration of 50%)
Method: as §1, §2, §3, §4, §5

Pytirosporum orbiculare = assay: as above; format: cell-based; details: 18 h, read-out: IC 50 (growth-inhibiting concentration of 50%)
Method: as §1, §2, §3, §4, §5

Saccharomyces cerevisiae = assay: as above; format: cell-based; details: Saccharomyces cerevisiae, 18 h, read-out: IC 50 (growth-inhibiting concentration of 50%)
Method: as §1, §2, §3, §4, §5

Aspergillus flavus = assay: Diffusion method in agar-agar medium (Sabouraud agar-agar); format: cell-based; details: Aspergillus flavus, read-out: concentration giving a growth inhibition of 1 cm around a disc in solid medium
Method: (§6) A.2 : Study of the antibiotic efficiency of amphotericine B derivatives in agar-agar medium against Aspergillus
(§7) The antibiotic activity was tested by the diffusion method in agar-agar medium (Sabouraud agar-agar).
(§8) The efficiency of each molecule was determined by the size of the growth-inhibiting zone around a WHATMAN 3M paper disc impregnated with the antibiotic substance of a given concentration.
(§9) A suspension of Aspergillus spores in a broth was prepared, 0.2 ml of this suspension was used to inoculate at its surface an agar-agar medium which was solidified in such a manner that a homogeneous growth layer was obtained. After spreading, the WHATMAN 3M paper discs (diameter: 1 cm) were placed on the surface of the agar-agar, and then impregnated with 0.1 ml of the antibiotic substance at different concentrations.

Aspergillus fumigatus = assay: as above; format: cell-based; details: Aspergillus fumigatus, read-out: concentration giving a growth inhibition of 1 cm around a disc in solid medium
Method: as §6, §7, §8, §9

[1] = Solubility of the AmB derivatives; format: physicochemical; details: 5% glucose solution, ambient temperature
Method: C.2. Solubility of the AmB derivatives according to the present invention
AmB or the derivatives obtained are dissolved at ambient temperature in a 5% glucose solution up to saturation.

[2] = background; cited from earlier work

## C[C@@H]1[C@H](O)[C@@H](C)/C=C/C=C/C=C/C=C/C=C/C=C/C=C/[C@H](O[C@@H]2O[C@H](C)[C@@H](O)[C@H](N)[C@@H]2O)C[C@@H]2O[C@](O)(C[C@@H](O)C[C@@H](O)[C@H](O)CC[C@@H](O)C[C@@H](O)CC(=O)O[C@H]1C)C[C@H](O)[C@H]2C(=O)O [AmB, amphotericine B, reference compound]
Candida albicans B 2630
  IC50: 350 nM
Candida albicans
  IC50: 80 nM
Cryptoccocus neoformans
  IC50: 80 nM
Pytirosporum orbiculare
  IC50: < 10 nM
Saccharomyces cerevisiae
  IC50: 540 nM
Aspergillus flavus
  IC (1 cm inhibition zone): 50 µM
Aspergillus fumigatus
  IC (1 cm inhibition zone): 50 µM
[1]
  solubility (in words): insoluble
[2]
  solubility in water (in words): sparingly soluble in water
